According to patent US20180099931A1 (AbbVie S.à.r.l., priority 2016, published 2018):
Read-outs that look alike come from different tables or passages of the source.

Biological target: T1, F508delCFTR (Homo sapiens, UniProt P13569, DEL508-508)
T1 construct: expressed in transfected cells; host or cells: CFBE41o- human lung-derived epithelial cells (CFBE4lo-F508delCFTR-HRP), doxycycline-inducible
Assay: Cell Surface Expression-Horse Radish Peroxidase (CSE-HRP) Assay;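 for Maximum % activity (with co-corrector): co-corrector and positive control are both the same reference corrector at 2 µM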;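 for Maximum % activity (without co-corrector): percent of the 2 µM on-plate positive control corrector response above DMSO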
Type: cell-based
Conditions: for Maximum % activity (with co-corrector) / Emax: maximum at any tested concentration, normalized to on-plate positive control; for Emax: read-out: Maximum % activity (without co-corrector)

[1] = CSE-HRP, test compound without co-corrector, read-out: EC50 (without co-corrector)
[2] = CSE-HRP, with co-corrector (2 μM of 3-[(2R,4R)-4-({[1-(2,2-difluoro-1,3-benzodioxol-5-yl)cyclopropyl]carbonyl}amino)-7-methoxy-3,4-dihydro-2H-chromen-2-yl]benzoic acid), read-out: EC50 (with co-corrector)
[3] = CSE-HRP, with co-corrector (2 μM)
[4] = test compound without co-corrector
[5] = test compound without co-corrector, read-out: EC50 (without co-corrector)
[6] = with co-corrector (2 μM of 3-[(2R,4R)-4-({[1-(2,2-difluoro-1,3-benzodioxol-5-yl)cyclopropyl]carbonyl}amino)-7-methoxy-3,4-dihydro-2H-chromen-2-yl]benzoic acid)
[7] = with co-corrector (2 μM of 3-[(2R,4R)-4-({[1-(2,2-difluoro-1,3-benzodioxol-5-yl)cyclopropyl]carbonyl}amino)-7-methoxy-3,4-dihydro-2H-chromen-2-yl]benzoic acid), read-out: EC50 (with co-corrector)

T1 sequence (P13569 with tags, fused parts or gaps DEL508-508): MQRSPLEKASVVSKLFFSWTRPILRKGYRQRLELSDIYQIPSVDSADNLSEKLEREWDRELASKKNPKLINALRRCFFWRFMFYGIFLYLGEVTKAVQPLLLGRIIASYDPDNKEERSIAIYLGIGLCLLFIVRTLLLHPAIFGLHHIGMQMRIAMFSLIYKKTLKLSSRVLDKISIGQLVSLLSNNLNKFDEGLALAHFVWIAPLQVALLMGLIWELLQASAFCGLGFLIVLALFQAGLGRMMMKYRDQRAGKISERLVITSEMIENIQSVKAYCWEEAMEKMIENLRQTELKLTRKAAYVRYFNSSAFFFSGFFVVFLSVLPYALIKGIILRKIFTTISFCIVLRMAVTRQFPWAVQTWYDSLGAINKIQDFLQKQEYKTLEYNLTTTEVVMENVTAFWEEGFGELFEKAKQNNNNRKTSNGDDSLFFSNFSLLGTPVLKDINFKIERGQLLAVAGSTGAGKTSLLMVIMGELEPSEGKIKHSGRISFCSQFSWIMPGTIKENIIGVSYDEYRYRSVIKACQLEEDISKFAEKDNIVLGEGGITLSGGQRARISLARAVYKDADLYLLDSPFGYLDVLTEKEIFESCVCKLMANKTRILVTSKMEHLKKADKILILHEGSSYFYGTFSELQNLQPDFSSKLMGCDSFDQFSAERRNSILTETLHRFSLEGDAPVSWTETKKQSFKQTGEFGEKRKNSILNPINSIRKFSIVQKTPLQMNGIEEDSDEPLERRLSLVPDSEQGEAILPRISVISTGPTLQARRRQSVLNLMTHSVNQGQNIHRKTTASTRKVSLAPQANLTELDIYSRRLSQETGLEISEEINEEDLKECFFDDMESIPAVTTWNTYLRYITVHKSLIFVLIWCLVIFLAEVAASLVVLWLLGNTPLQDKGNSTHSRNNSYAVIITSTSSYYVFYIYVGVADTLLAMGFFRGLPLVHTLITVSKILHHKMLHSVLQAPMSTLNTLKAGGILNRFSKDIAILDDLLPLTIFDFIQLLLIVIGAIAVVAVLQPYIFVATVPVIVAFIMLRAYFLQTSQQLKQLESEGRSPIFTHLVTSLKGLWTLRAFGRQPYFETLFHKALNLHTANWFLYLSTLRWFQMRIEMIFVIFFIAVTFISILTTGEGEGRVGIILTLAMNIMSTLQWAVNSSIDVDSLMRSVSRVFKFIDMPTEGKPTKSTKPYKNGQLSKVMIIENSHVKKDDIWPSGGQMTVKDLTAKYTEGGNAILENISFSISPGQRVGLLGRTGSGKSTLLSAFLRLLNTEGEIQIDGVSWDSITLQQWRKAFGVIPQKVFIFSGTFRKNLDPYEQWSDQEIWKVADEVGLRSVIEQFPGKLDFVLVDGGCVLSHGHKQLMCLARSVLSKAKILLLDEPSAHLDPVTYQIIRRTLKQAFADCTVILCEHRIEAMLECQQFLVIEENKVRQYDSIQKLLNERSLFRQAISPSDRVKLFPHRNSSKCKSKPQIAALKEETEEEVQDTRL

| SMILES | EC50 [1] [nM] | EC50 [2] [nM] | Maximum % activity (with co-corrector) [3] | Emax (CSE-HRP, without co-corrector) [%] | Emax [4] [%] | EC50 [5] [nM] | Maximum % activity (with co-corrector) [6] | EC50 [7] [nM] | Maximum % activity (with co-corrector) (with co-corrector (2 μM)) | Emax (without co-corrector) [%] |
| --- | --- | --- | --- | --- | --- | --- | --- | --- | --- | --- |
| COc1ccc(-c2cccc(C#N)c2)cc1CN[C@H]1[C@H](C(C)(C)C)[C@@H](C(=O)O)N(C(=O)C2CCCCC2)[C@H]1c1ccccc1 [II-281] | 1000 to 10000 | 1000 to 10000 | +++ (≥350) | 100 to 200 |  |  |  |  |  |  |
| COc1ccnc(CN[C@@H]2[C@@H](C(C)(C)C)[C@H](C(=O)O)N(C(=O)C3CCCCC3)[C@@H]2c2ccccc2)n1 (racemic) [III-22] |  |  |  |  | < 100 | > 10000 | + (<150) | > 10000 |  |  |
| COc1ncc(C2CCC2)cc1CN[C@H]1[C@H](C(C)(C)C)[C@@H](C(=O)O)N(C(=O)[C@@H]2CCCCO2)[C@H]1c1ccccc1C [II-585] |  |  |  |  | > 200 | 1000 to 10000 | +++ (≥350) | < 1000 |  |  |
| COc1ccc(C(C)C)cc1CN[C@H]1[C@H](C(C)(C)C)[C@@H](C(=O)O)N(C(=O)C2CCCCC2)[C@H]1c1ccccc1F [Example I-111] |  |  |  |  |  | 1000 to 10000 |  | < 1000 | +++ (≥350) | 100 to 200 |
| COc1cc(C(F)(F)F)ccc1CN[C@H]1[C@H](C(C)(C)C)[C@@H](C(=O)O)N(C(=O)[C@H]2CCCCO2)[C@H]1c1cccnc1N(C)C [II-494] |  |  |  |  | < 100 | 1000 to 10000 | ++ (≥150 and <350) | 1000 to 10000 |  |  |
| CC(C)(O)c1cc(Cl)nc(N[C@H]2[C@H](C(C)(C)C)[C@@H](C(=O)O)N(C(=O)C3CCCCC3)[C@H]2c2ccccc2)c1 [III-147] |  |  |  |  | < 100 | > 10000 |  | 1000 to 10000 | ++ (≥150 and <350) |  |
| COc1ncc(C2CCC2)cc1CN[C@H]1[C@H](C(C)(C)C)[C@@H](C(=O)O)N(C(=O)OC(C)C)[C@H]1c1ccccc1C [Example 94, (2S,3S,4S,5S)-3-tert-butyl-4-{[(5-cyclobutyl-2-methoxypyridin-3-yl)methyl]amino}-5-(2-methylphenyl)-1-{[(propan-2-yl)oxy]carbonyl}pyrrolidine-2-carboxylic acid] |  |  |  |  |  | 1000 to 10000 |  | < 1000 | +++ (≥350) | > 200 |
| COc1ncc(C2CCC2)cc1CN[C@H]1[C@H](C(C)(C)C)[C@@H](C(=O)O)N(C(=O)[C@@H]2CCC[C@H](C(F)(F)F)C2)[C@H]1c1ccccc1 (relative stereo) [Example I-259] | 1000 to 10000 | 1000 to 10000 | +++ (≥350) | 100 to 200 |  |  |  |  |  |  |
| CC(C)OC(=O)N1[C@H](C(=O)O)[C@@H](C(C)(C)C)[C@H](NCC2CCN(C(C)C)CC2)[C@@H]1c1ccccc1 [III-235] |  |  |  |  | < 100 | > 10000 |  | < 1000 | + (<150) |  |
| CC(C)(C)[C@H]1[C@H](NCc2ccc(OC(F)(F)F)c(F)c2)[C@H](c2ccccc2)N(C(=O)C2CCCCC2)[C@@H]1C(=O)O [III-128] |  |  |  |  | < 100 | > 10000 |  | 1000 to 10000 | ++ (≥150 and <350) |  |
| COc1ccc(C(C)(C)C)cc1CN[C@H]1[C@H](C(C)(C)C)[C@@H](C(=O)O)N(C(=O)C2CCCCC2)[C@H]1c1cccnc1OC [Example 17, (2S,3S,4S,5S)-3-tert-butyl-4-{[(5-tert-butyl-2-methoxyphenyl)methyl]amino}-1-(cyclohexanecarbonyl)-5-(2-methoxypyridin-3-yl)pyrrolidine-2-carboxylic acid] |  |  |  |  |  | 1000 to 10000 |  | < 1000 | +++ (≥350) | > 200 |
| COc1ccc(C(C)(C)C)cc1CN[C@H]1[C@H](C(C)(C)C)[C@@H](C(=O)O)N(C(=O)C2CCCS2(=O)=O)[C@H]1c1ccccc1 (stereo partly drawn) [Example I-192] |  |  |  |  |  | 1000 to 10000 |  | 1000 to 10000 | +++ (≥350) | 100 to 200 |
| COc1ccc(C23CC(C2)C3)cc1CN[C@H]1[C@H](C(C)(C)C)[C@@H](C(=O)O)N(C(=O)[C@@H]2CCCCO2)[C@H]1c1cccnc1N(C)C [Example 51, (2S,3S,4S,5S)-4-({[5-(bicyclo[1.1.1]pentan-1-yl)-2-methoxyphenyl]methyl}amino)-3-tert-butyl-5-[2-(dimethylamino)pyridin-3-yl]-1-[(2S)-oxane-2-carbonyl]pyrrolidine-2-carboxylic acid] |  |  |  |  |  | 1000 to 10000 |  | < 1000 | +++ (≥350) | > 200 |
| COc1ccc(F)c(CN[C@H]2[C@H](C(C)(C)C)[C@@H](C(=O)O)N(C(=O)C3CCCCC3)[C@H]2c2ccccc2)c1 [II-106] | 1000 to 10000 | 1000 to 10000 | ++ (≥150 and <350) | < 100 |  |  |  |  |  |  |
| COc1ccc(C(C)(C)C)cc1CN[C@@H]1[C@@H](C(C)(C)C)[C@@H](C(=O)O)N(C(=O)[C@H](OC)c2ccccc2)[C@H]1c1ccccc1 [II-393] |  |  |  |  | < 100 | 1000 to 10000 | ++ (≥150 and <350) | 1000 to 10000 |  |  |
| COc1ccc(C(C)C)cc1CN[C@H]1[C@H](C(C)(C)C)[C@@H](C(=O)O)N(C(=O)C2CCCCC2)[C@H]1c1ccc(F)cc1 [Example I-109] |  |  |  |  |  | 1000 to 10000 |  | < 1000 | +++ (≥350) | > 200 |
| COc1ccc(C(C)(C)C)cc1CN[C@H]1[C@H](C(C)(C)C)[C@@H](C(=O)O)N(C(=O)Cc2ccccc2)[C@H]1c1ccccc1 [II-180] | 1000 to 10000 | < 1000 | +++ (≥350) | > 200 |  |  |  |  |  |  |
| Cc1ccc(CN[C@H]2[C@H](C(C)(C)C)[C@@H](C(=O)O)N(C(=O)C3CCCCC3)[C@H]2c2ccccc2)cc1C [III-134] |  |  |  |  | < 100 | 1000 to 10000 |  | 1000 to 10000 | ++ (≥150 and <350) |  |
| CC(C)(C)[C@@H]1[C@@H](NCc2cc(Br)ccc2C#N)[C@@H](c2ccccc2)N(C(=O)C2CCCCC2)[C@H]1C(=O)O (racemic) [III-109] |  |  |  |  | < 100 | > 10000 |  | 1000 to 10000 | ++ (≥150 and <350) |  |
| COc1ncc(C(F)(F)F)cc1N[C@@H]1[C@@H](C(C)(C)C)[C@H](C(=O)O)N(C(=O)C2CCCCC2)[C@@H]1c1ccccc1 (racemic) [Example I-15] |  |  |  |  |  | < 1000 |  | < 1000 | +++ (≥350) | < 100 |
| COc1ccc(C(C)(C)C)cc1CN[C@H]1[C@H](C(C)(C)C)[C@@H](C(=O)O)N(C(=O)C2COc3c(cccc3OC)C2)[C@H]1c1ccccc1 (stereo partly drawn) [II-402] |  |  |  |  | > 200 | 1000 to 10000 | +++ (≥350) | < 1000 |  |  |
| COc1ccc(C(C)(C)C)cc1CN[C@H]1[C@H](C(C)(C)C)[C@@H](C(=O)O)N(C(=O)Cc2ncc(Cl)cc2F)[C@H]1c1ccccc1 [II-236] | 1000 to 10000 | < 1000 | +++ (≥350) | > 200 |  |  |  |  |  |  |
| COc1ccc(-c2cncnc2)cc1CN[C@H]1[C@H](C(C)(C)C)[C@@H](C(=O)O)N(C(=O)C2CCCCC2)[C@H]1c1ccccc1 [Example I-114] |  |  |  |  |  | 1000 to 10000 |  | 1000 to 10000 | ++ (≥150 and <350) | < 100 |
| COc1ccc(C(C)(C)C)cc1CN[C@H]1[C@H](C(C)(C)C)[C@@H](C(=O)O)N(C(=O)C(Oc2ccccc2C)C(C)C)[C@H]1c1ccccc1 (stereo partly drawn) [II-415] |  |  |  |  | > 200 | 1000 to 10000 | +++ (≥350) | < 1000 |  |  |
| COc1ccc(C2CC3CCC2C3)cc1CN[C@H]1[C@H](C(C)(C)C)[C@@H](C(=O)O)N(C(=O)C2CCCCC2)[C@H]1c1ccccc1 (stereo partly drawn) [II-194] | < 1000 | < 1000 | +++ (≥350) | > 200 |  |  |  |  |  |  |
| COc1ncc(C2CCC2)cc1CN[C@H]1[C@H](C(C)(C)C)[C@@H](C(=O)O)N(C(=O)[C@@H]2CCC[C@@H](F)C2)[C@H]1c1ccccc1 [II-532] |  |  |  |  | > 200 | 1000 to 10000 | +++ (≥350) | < 1000 |  |  |
| COc1ccc(C(C)(C)C)cc1CN[C@H]1[C@H](C(C)(C)C)[C@@H](C(=O)O)N(C(=O)[C@@H]2CCCO2)[C@H]1c1cccnc1C1CC1 [Example 96, (2S,3S,4S,5S)-3-tert-butyl-4-{[(5-tert-butyl-2-methoxyphenyl)methyl]amino}-5-(2-cyclopropylpyridin-3-yl)-1-[(2S)-oxolane-2-carbonyl]pyrrolidine-2-carboxylic acid] |  |  |  |  |  | 1000 to 10000 |  | 1000 to 10000 | +++ (≥350) | 100 to 200 |
